Results published in ChEMBL document CHEMBL1154394, “The preparation of 2,6-disubstituted pyridinyl phosphine oxides as novel anti-cancer agents” (Bioorg Med Chem Lett, 2009).
Calls of active or inactive are those of the source. The rule behind the calls is not given here.

Columns and labels:
SK-HEP1 [1] = test: Cytotoxicity against human SKHEP1 cells after 48 hrs by one step ATP lite assay; assay type: functional, cell-based
MDA-MB-231 [2] = test: Induction of apoptosis in human MDA-MB-231 cells assessed as morphological changes at 60 uM after 48 hrs; assay type: functional, cell-based
MDA-MB-231 [3] = test: Cytotoxicity against human MDA-MB-231 cells after 48 hrs by one step ATP lite assay; assay type: functional, cell-based
SK-HEP1 [4] = test: Growth inhibition of human SKHEP1 cells at 70 uM after 48 hrs by one step ATP lite assay in presence of z-VAD-fmk; assay type: functional, cell-based
[5] = Cytotoxicity against non malignant human hematological disorder bone marrow cells after 48 hrs by one step ATP lite assay; assay type: cell-based; conditions: Bone marrow cell
MDA-MB-231 [6] = test: Growth inhibition of human MDA-MB-231 cells at 70 uM after 48 hrs by one step ATP lite assay in presence of z-VAD-fmk; assay type: functional, cell-based
SK-HEP1 [7] = test: Induction of apoptosis in human SKHEP1 cells assessed as morphological changes at 60 uM after 48 hrs; assay type: functional, cell-based
SK-HEP1 [8] = test: Growth inhibition of human SKHEP1 cells at 100 uM after 48 hrs by one step ATP lite assay; assay type: functional; parameters: scale not given: the % may be the effect or the level left
MDA-MB-231 [9] = test: Growth inhibition of human MDA-MB-231 cells at 100 uM after 48 hrs by one step ATP lite assay; assay type: functional; conditions: MDA-MB-231, 48 h, read-out: GI

| Compound | IC50 (SK-HEP1 [1]; SK-HEP1, 48 h) [µM] | Activity (MDA-MB-231 [2]) | IC50 (MDA-MB-231 [3]; MDA-MB-231, 48 h) [µM] | Activity (SK-HEP1 [4]) | IC50 [5] [µM] | Activity (MDA-MB-231 [6]) | Activity (SK-HEP1 [7]) | Activity (SK-HEP1 [8]) [%] | inhibition of growth at 100 µM (MDA-MB-231 [9]) [%] | Activity (SK-HEP1 [1]) | Activity (MDA-MB-231 [3]) |
| --- | --- | --- | --- | --- | --- | --- | --- | --- | --- | --- | --- |
| COc1nc(OC)c(Br)c(P(=O)(c2ccccc2)c2ccccc2)c1Br | 38.5 | Active | 47.5 | inactive | 54.2 | inactive | Active |  |  |  |  |
| COc1cc(P(=O)(c2ccccc2)c2ccccc2)c(Br)c(OC)n1 |  | Active |  |  |  |  | Active | 30 | 30 |  |  |
| COc1cc(P(=O)(c2ccccc2)c2ccccc2)cc(OC)n1 |  |  |  |  |  |  |  |  |  | Active | Active |
